The results in this text go back to paper PMC12005787, “Synthetic Lethality of SHP2 and XIAP Suppresses Proliferation and Metastasis in KRAS‐mutant Nonsmall Cell Lung Cancer” (Advanced Science, 2025).

By IC50 is commonly meant the concentration needed to halve the response being measured.

The test system of data set [1] is SHP2 and ERK phosphorylation in KRAS, HRAS and NRAS‐mutant cells. Put plainly: SHP2 and ERK phosphorylation in RAS-mutant cells (western blotting). The settings on record: KRAS G12C, G12S, G13D. Type of data set: cell-based. The method, then:
Transwell, and the subsequent experiments were performed as described in Cell migration […]
After given treatment, cells were lysed by ice bath with radio-immunoprecipitation assay (RIPA) buffer containing 1% phenylmethylsulphonyl fluoride (PMSF), and the supernatant was collected by centrifugation, and the protein concentration was subsequently determined using a BCA Protein Assay Kit. Depending on the molecular weight of the proteins, different concentrations of sodium dodecyl-sulfate polyacrylamide gel electrophoresis (SDS-PAGE) separator gels were prepared for protein electrophoresis. Equal amounts of proteins were sampled and subjected to SDS-PAGE gel electrophoresis; at the end of electrophoresis, the proteins were transferred to nitrocellulose (NC) membranes. The NC membrane was blocked with 5% skim milk and covered with a specific primary antibody overnight at 4 °C, in which the primary antibody was diluted at a ratio of 1:500–1:5000. The NC membrane was […]
(In general: In western blotting, separated proteins are transferred to a membrane and probed.)

A further data set deals with HCT116 cells. Put plainly: Cell viability assay (CCK-8). Type of data set: cell-based. The settings on record: Homo sapiens, HCT-116. The method, then: (§1) KRAS-mutant and wild-type cells are listed in Supplementary Table S7.
(§2) For the adherent cell viability assay, cells in the logarithmic growth phase were seeded in 96-well culture plates at a density of 5×103 well-1 and incubated overnight. Diluted compounds or DMSO were added, or specific treatments were incubated at 37 °C and 5% CO2 for 24 h or 48 h. Cell viability was determined using CCK-8 or CellLightTM Cell Viability Assay Kit, according to the manufacturer's protocol. The luminescence signals of the treated samples were normalized to those of the DMSO group. […]

The next data set deals with NCI-H358 cells. Put plainly: Cell viability assay (CCK-8). Type of data set: cell-based. The settings on record: Homo sapiens. The method, then:
as §1, §2

A further data set has as its system NCI-H838 cells. Put plainly: Cell viability assay (CCK-8). Type of data set: cell-based. The settings on record: Homo sapiens. Here is the method: as §1, §2
A further data set deals with SW1116 cells. Put plainly: Cell viability assay (CCK-8). Type of data set: cell-based. The note with it: Homo sapiens, SW 1116. The method, then:
as §1, §2

A further data set deals with SNU-C2A cells. The data set can be described thus: Cell viability assay (CCK-8). Type of data set: cell-based. The method, then: as §1, §2
The subject of the next data set is NCI-H1915 cells. The data set can be described thus: Cell viability assay (CCK-8). Type of data set: cell-based. Here is the method: as §1, §2
The next data set deals with NCI-H1944 cells. The data set can be described thus: Cell viability assay (CCK-8). Type of data set: cell-based. The note with it: Homo sapiens. Here is the method: as §1, §2
For another data set, the system named is NCI-H1693 cells. The data set can be described thus: Cell viability assay (CCK-8). The note with it: Homo sapiens. Type of data set: cell-based. Here is the method: as §1, §2
Another data set relates to NCI-H1755 cells. Put plainly: Cell viability assay (CCK-8). The note with it: Homo sapiens. Type of data set: cell-based. Here is the method:
as §1, §2

In a further data set the test system is A549 and NCI‐H2122 cells. The data set can be described thus: Compound removal from culture media (western blotting). Type of data set: cell-based, human. An excerpt:
Due to the poor membrane permeability of SHP2 catalytic inhibitors,^[ [18], [30] ^] we examined the effect of embelin on SHP2 expression and phosphorylation after removing the compound from the culture media of A549 and NCI‐H2122 cells.

Structures are written as SMILES. Like-named read-outs stand apart in the source and are kept apart here.

As to `CCCCCCCCCCCC1=C(O)C(=O)C=C(O)C1=O` [Embelin], the “effect on SHP2 phosphorylation” value in data set [1] was “inhibited SHP2 phosphorylation”. In data set [1], the “effect on downstream ERK phosphorylation” value is “significantly reduced”. The IC50 in the data set on HCT116 cells (HCT116, 48 h, read-out: IC50 at 48 h) stood at 9.6 ± 0.4 µM; with HCT116 cells (HCT116, KRAS G13D, 24 h, read-out: IC50 at 24 h), 18.2 ± 0.9 µM; in the data set on NCI-H358 cells (NCI-H358, 48 h, read-out: IC50 at 48 h) it was 9.2 ± 0.3 µM; in the data set with NCI-H358 cells (NCI-H358, KRAS G12C, 24 h, read-out: IC50 at 24 h) it was 12.2 ± 0.4 µM; in the data set on NCI-H838 cells (NCI-H838, 48 h, read-out: IC50 at 48 h) it was 10.5 ± 0.44 µM; in the data set with NCI-H838 cells (NCI-H838, RAS-wild type, 24 h, read-out: IC50 at 24 h) it was 39.79 ± 0.27 µM. Further, the IC50 in the data set on SW1116 cells (SW1116, 48 h, read-out: IC50 at 48 h) amounted to 7 ± 0.35 µM; with SW1116 cells (SW1116, KRAS G12A, 24 h, read-out: IC50 at 24 h), 19.5 ± 0.29 µM; in the data set with SNU-C2A cells (48 h, read-out: IC50 at 48 h), 8.73 ± 0.43 µM; in the data set with SNU-C2A cells (KRAS G12D, 24 h, read-out: IC50 at 24 h), 22.4 ± 0.5 µM; with NCI-H1915 cells (NCI-H1915, 48 h, read-out: IC50 at 48 h), 11.4 ± 0.39 µM; in the data set with NCI-H1915 cells (NCI-H1915, HRAS, 24 h, read-out: IC50 at 24 h), 60.6 ± 0.41 µM. The IC50 in the data set on NCI-H1944 cells (NCI-H1944, 48 h, read-out: IC50 at 48 h) was 21.6 ± 0.9 µM; in the data set on NCI-H1944 cells (NCI-H1944, KRAS G13D, 24 h, read-out: IC50 at 24 h), 31 ± 0.2 µM; with NCI-H1693 cells (NCI-H1693, 48 h, read-out: IC50 at 48 h), 16.2 ± 0.37 µM; in the data set on NCI-H1693 cells (NCI-H1693, RAS-wild type, 24 h, read-out: IC50 at 24 h), 42.57 ± 0.34 µM; in the data set with NCI-H1755 cells (NCI-H1755, 48 h, read-out: IC50 at 48 h), 14.2 ± 0.27 µM; with NCI-H1755 cells (NCI-H1755, RAS-wild type, 24 h, read-out: IC50 at 24 h), 49.4 ± 0.32 µM. Besides, the “membrane permeability (inferred from removal after 6 h vs continuous 24 h treatment)” value with A549 and NCI‐H2122 cells is listed as “strong membrane permeability”.
